Experimental data published in patent EP2246331A1, “NR2B-selective NMDA-receptor antagonists” (Westfälische Wilhelms-Universität Münster, priority 2009, dated 2010).
Where two headings read alike, the source gives them in different places.

Tests used:
[1] = target: T1, polyamine binding site of the NR2B subunit of the NMDA receptor (Homo sapiens, UniProt Q05586+Q13224); assay: Filtration-based receptor binding assay with [3H]-Ifenprodil as radioligand; conditions: 5 nM [3H]-Ifenprodil, membrane homogenates of mouse L(tk-) cells transfected with NR1-1a/NR2B, 180 min at 37 °C, read-out: affinity to the NR2B binding site of the NMDA receptor
T1 construct: expressed in transfected cells; host or cells: mouse L(tk-) cells, dexamethasone-induced; gift from D. Steinhilber, University of Frankfurt
Description: Mouse L(tk-) cells stably transfected with the dexamethasone-inducible eukaryotic expression vectors pMSG NR1-1a, pMSG NR2B in a 1:5 ratio were a generous gift from D. Steinhilber (Department of Pharmacy, University of Frankfurt, Germany). The transformed L(tk-) cells were grown in Modified Earl's Medium (MEM) containing 10% of standardized FCS (Biochrom AG, Berlin, Germany). The expression of the NMDA receptor at the cell surface was induced after the cell density of the adherent growing cells had reached approximately 90% of confluency. For the induction, the original growth medium was replaced by growth medium containing 4 µM dexamethasone and 4 µM ketamine (final concentration). After 24 h the cells were harvested by trypsination and pelleted (10 min, 5,000 x g, Hettich Rotina 35R centrifuge, Tuttlingen, Germany).
For the binding assay, the cell pellet was resuspended in PBS buffer and the number of cells was determined using an improved Neubauer's counting chamber (VWR, Darmstadt, Germany). Subsequently, the cells were lysed by sonication (4 °C, 6 x 10 s cycles with breaks of 10 sec). The resulting cell fragments were centrifuged with a high performance cool centrifuge (20,000 x g, 4 °C, Sorvall RC-5 plus, Thermo Scientific). The supernatant was discarded and the pellet resuspended in a defined volume of phosphate buffer saline (PBS) yielding cell fragments of approximately 500,000 cells/mL. The suspension of membrane homogenates was sonicated again (4 °C, 2 x 10 s cycles with a break of 10 min) and stored at -80 °C.
The cell membrane suspension was added last. All experiments were carried out in triplicates. The incubation was terminated by rapid filtration through filtermats using a cell harvester (MicroBeta FilterMate-96 Harvester, Perkin Elmer). Prior to harvesting, the filtermats were presoaked in 0.5% aqueous polyethylenimine for 2 h at room temperature. After washing each well five times with 300 µL of water, the filtermats were dried at 95 °C. Subsequently, the solid scintillator was placed on the filtermat and melted at 95 °C. After 5 min, the solid scintillator was allowed to solidify at room temperature. The bound radioactivity trapped on the filters was counted in the scintillation analyzer (Microbeta Counter, Perkin Elmer). The overall counting efficiency was 20%.
The protein concentration was determined by the method of Bradford, modified by Stoscheck. The Bradford solution was prepared by dissolving 5 mg of Coomassie Brilliant Blue G 250 in 2.5 mL EtOH (95%, v/v). 10 mL deionized H2O and 5 mL phosphoric acid (85%, m/v) were added to this solution, the mixture was stirred and filled up to a total volume of 50.0 mL with deionized water. The calibration was carried out using bovine serum protein as a standard in concentrations between 0.1 and 10 mg /L. In a 96-well standard multiplate, 10 µL of the calibration solution or 10 µL of the membrane receptor preparation were mixed with 190 µL of the Bradford solution, respectively.
Kd and Bmax were calculated as described in the "Data analysis" section.
Data analysis was performed with Graph Pad Prism® Software, Version 3.0 (Graph Pad Software Inc., San Diego, CA, USA).
Saturation analyses were made by nonlinear regression using the "one-site-saturation" calculation method. The IC50 values of the test compounds used in the competitive binding experiments were determined by nonlinear regression using the "one-site-competition" calculation method. […] The Ki values are given as mean values from three independent experiments ± Standard Error of the Mean (S.E.M).

σ2 receptor = target: T2, σ2 receptor (Rattus norvegicus, UniProt Q5U3Y7); assay: Receptor binding assay with [3H]-ditolylguanidine on rat liver membranes; conditions: for Ki: read-out: affinity to the σ2 receptor
T2 construct: tissue Harlan Winkelmann; host or cells: rat liver membranes
T2 sequence (Q5U3Y7 1-176): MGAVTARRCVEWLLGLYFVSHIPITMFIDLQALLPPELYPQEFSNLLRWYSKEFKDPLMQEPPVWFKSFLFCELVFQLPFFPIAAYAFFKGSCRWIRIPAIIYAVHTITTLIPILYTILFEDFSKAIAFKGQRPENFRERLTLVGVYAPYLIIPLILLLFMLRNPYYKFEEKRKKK
Description: (§1) The pig brains were a donation of the local slaughterhouse (Coesfeld, Germany). Homogenizer: Elvehjem Potter (B. Braun Biotech International, Melsungen, Germany). Centrifuge: High-speed cooling centrifuge model Sorvall RC-5C plus (Thermo Fisher Scientific, Langenselbold, Germany). Filter: Printed Filtermat Typ A and B (Perkin Elmer LAS, Rodgau-Jügesheim, Germany), presoaked in 0.5% aqueous polyethylenimine for 2 h at room temperature before use. […] Before filling to the final volume of 1000 mL, the pH of the solution was adjusted to pH=7.5 by dropwise addition of 1M HCl. The filtration was carried out with a MicroBeta FilterMate-96 Harvester (Perkin Elmer). The scintillation analysis was performed using Meltilex (Typ A or B) solid scintillator (Perkin Elmer). The solid scintillator was melted on the filtermat at a temperature of 95 °C for 5 minutes. After solidifying of the scintillator at room temperature, the scintillation was measured using a MicroBeta Trilux scintillation analyzer (Perkin Elmer). The overall counting efficiency was 20 %. All experiments were carried out in triplicates using standard 96-well-multiplates (Diagonal, Muenster, Germany). […] The Ki-values are given as mean value ± SEM from three independent experiments.
Determination of affinity to the σ2 receptor
Two rat livers (Harlan Winkelmann, Borchen, Germany) were cut into smaller pieces and homogenized with the potter (500-800 rpm, 10 up-and-down strokes) in 6 volumes of cold 0.32 M sucrose. The suspension was centrifuged at 1200 x g for 10 min at 4 °C. The supernatant was separated and centrifuged at 31000 x g for 20 min at 4 °C. The pellet was resuspended in 5-6 volumes of buffer (50 mM TRIS, pH 8.0) and incubated at room temperature for 30 minutes. After the incubation, the suspension was centrifuged again at 31000 x g for 20 min at 4 °C. The final pellet was resuspended in 5 to 6 volumes of buffer, the protein concentration was determined according to the method of Bradford using bovine serum albumin as standard, and subsequently the preparation was frozen (-80 °C) in 1.5 mL portions containing about 2 mg protein/mL.
(50 Ci/mmol; ARC). […] The incubation was terminated by rapid filtration through the presoaked filtermats using a cell harvester. After washing each well five times with 300 µL of water, the filtermats were dried at 95 °C. Subsequently, the solid scintillator was placed on the filtermat and melted at 95 °C. The bound radioactivity trapped on the filters was counted in the scintillation analyzer as described in the "General procedures" section.

σ1 receptor = target: T3, σ1 receptor (Cavia porcellus, UniProt Q60492); assay: Receptor binding assay with [3H]-(+)-pentazocine on guinea pig brain membranes; conditions: for inhibition of the σ1 receptor only at concentrations above: given as above 1 µM or 10 µM
T3 construct: tissue Harlan Winkelmann; host or cells: guinea pig brain membranes
Description: as §1
Determination of the affinity to the σ1 receptor
Five guinea pig brains (Harlan Winkelmann, Borchen, Germany) were homogenized with the potter (500-800 rpm, 10 up-and-down strokes) in 6 volumes of cold 0.32 M sucrose. The suspension was centrifuged at 1200 x g for 10 min at 4 °C. […] This procedure was repeated twice. The final pellet was resuspended in 5 to 6 volumes of buffer, the protein concentration was determined according to the method of Bradford using bovine serum albumin as standard, and subsequently the preparation was frozen (-80 °C) in 1.5 mL portions containing about 1.5 mg protein/mL.
The test was performed with the radioligand [^3H]-(+)-pentazocine (42,5 Ci/mmol; Perkin Elmer). […] The incubation was terminated by rapid filtration through the presoaked filtermats using a cell harvester. After washing each well five times with 300 µl of water, the filtermats were dried at 95 °C. The bound radioactivity trapped on the filters was counted in the scintillation analyzer as described in the "General procedures" section. The non-specific binding was determined with 10 µM unlabeled (+)-pentazocine.

[2] = Ki mean of three experiments ± S.E.M.
[3] = 3 nM [3H]-ditolylguanidine with 2 µM (+)-pentazocine
[4] = 2 nM [3H]-(+)-pentazocine, guinea pig brain membranes
[5] = 3 nM [3H]-ditolylguanidine with 2 µM (+)-pentazocine, 180 min at room temperature, mean ± SEM
[6] = 2 nM [3H]-(+)-pentazocine, guinea pig brain membranes, 180 min at 37 °C, mean ± SEM, read-out: affinity to the σ1 receptor
[7] = 3 nM [3H]-ditolylguanidine with 2 µM (+)-pentazocine, values given in µM

T3 sequence (Q60492 whole entry): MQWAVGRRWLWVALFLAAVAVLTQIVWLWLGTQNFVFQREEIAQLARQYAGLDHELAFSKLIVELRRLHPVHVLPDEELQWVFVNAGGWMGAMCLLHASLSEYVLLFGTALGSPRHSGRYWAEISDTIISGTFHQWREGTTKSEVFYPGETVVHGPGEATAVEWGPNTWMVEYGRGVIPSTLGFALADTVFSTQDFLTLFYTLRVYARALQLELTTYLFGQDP
T1 sequence (Q13224 27-1484, other chains not shown): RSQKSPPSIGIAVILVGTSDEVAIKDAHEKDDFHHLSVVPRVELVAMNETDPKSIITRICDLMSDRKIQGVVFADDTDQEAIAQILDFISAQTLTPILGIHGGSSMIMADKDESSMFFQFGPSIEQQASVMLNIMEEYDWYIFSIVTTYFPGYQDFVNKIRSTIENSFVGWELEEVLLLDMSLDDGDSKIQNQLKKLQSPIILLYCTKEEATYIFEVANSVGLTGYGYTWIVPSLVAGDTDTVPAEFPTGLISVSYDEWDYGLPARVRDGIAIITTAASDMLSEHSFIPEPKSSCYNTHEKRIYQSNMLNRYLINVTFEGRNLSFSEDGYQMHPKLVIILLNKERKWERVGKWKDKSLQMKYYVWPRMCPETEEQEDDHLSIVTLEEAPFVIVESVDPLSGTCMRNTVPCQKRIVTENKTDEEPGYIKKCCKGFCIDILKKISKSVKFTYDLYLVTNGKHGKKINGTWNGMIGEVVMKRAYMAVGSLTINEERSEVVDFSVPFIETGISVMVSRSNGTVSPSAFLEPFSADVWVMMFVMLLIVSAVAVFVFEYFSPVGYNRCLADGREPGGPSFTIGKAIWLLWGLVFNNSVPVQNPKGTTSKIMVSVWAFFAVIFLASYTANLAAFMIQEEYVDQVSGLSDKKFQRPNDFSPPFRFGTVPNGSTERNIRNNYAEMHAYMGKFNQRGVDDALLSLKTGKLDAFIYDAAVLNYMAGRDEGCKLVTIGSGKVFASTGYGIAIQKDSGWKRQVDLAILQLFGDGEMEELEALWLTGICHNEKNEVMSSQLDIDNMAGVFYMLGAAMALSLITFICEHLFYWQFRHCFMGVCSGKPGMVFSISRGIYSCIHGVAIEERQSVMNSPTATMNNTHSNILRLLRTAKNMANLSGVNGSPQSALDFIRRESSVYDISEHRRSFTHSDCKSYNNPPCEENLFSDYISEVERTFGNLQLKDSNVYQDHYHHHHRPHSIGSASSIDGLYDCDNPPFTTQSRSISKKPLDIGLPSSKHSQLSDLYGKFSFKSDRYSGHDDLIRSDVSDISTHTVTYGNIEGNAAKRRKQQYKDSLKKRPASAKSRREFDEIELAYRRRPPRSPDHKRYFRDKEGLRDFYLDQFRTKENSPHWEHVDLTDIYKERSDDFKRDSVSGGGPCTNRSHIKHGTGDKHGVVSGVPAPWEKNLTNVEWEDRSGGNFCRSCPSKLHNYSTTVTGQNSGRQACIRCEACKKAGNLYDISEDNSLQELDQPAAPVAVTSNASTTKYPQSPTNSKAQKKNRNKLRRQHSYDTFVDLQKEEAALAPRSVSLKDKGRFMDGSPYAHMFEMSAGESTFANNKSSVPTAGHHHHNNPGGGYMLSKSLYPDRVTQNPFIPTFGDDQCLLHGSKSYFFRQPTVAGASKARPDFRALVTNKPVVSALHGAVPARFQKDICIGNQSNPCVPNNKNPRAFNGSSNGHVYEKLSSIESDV

| SMILES | Ki [1, 2] [µM] | Ki (σ2 receptor; [5]) [µM] | Ki (σ1 receptor; [6]) [µM] | also measured |
| --- | --- | --- | --- | --- |
| OC1CN([C@H]2CC[C@@H](c3ccccc3)CC2)CCc2cc(OCc3ccccc3)ccc21 (relative stereo) [formula (19)] | 0.156 | – | – | inhibition of the σ2 receptor only at concentrations above (σ2 receptor; [3]): above 1 µM; inhibition of the σ1 receptor only at concentrations above (σ1 receptor; [4]): above 1 µM |
| Oc1ccc2c(c1)CCN([C@H]1CC[C@@H](c3ccccc3)CC1)CC2O (relative stereo) [formula (21)] | 0.00486 | 0.00856 ± 0.00433 | – | – |
| Oc1ccc2c(c1)CCN([C@H]1CC[C@H](c3ccccc3)CC1)CC2O (relative stereo) [formula (23)] | 0.0342 | 0.00893 ± 0.00257 | 0.2 ± 0.062 | – |
| COc1ccc2c(c1)CCN(CCCCc1ccccc1)CC2O (stereo not shown) [formula (1)] | 0.00512 | 0.554 ± 0.221 | 0.182 ± 0.067 | – |
| CCCCCCCCN1CCc2cc(OC)ccc2C(O)C1 (stereo not shown) [formula (2)] | 0.591 ± 0.15 | 0.108 ± 0.09 | – | Ki (σ1 receptor): 0.0446 ± 0.0214 µM |
| COc1ccc2c(c1)CCN(C1CCC(c3ccccc3)CC1)CC2O (stereo not shown) [formula (3)] | 0.192 ± 0.026 | 0.0816 ± 0.0444 | 0.0331 ± 0.0298 | – |
| Oc1ccc2c(c1)CCN(CCCCc1ccccc1)CC2O (stereo not shown) [formula (4)] | 0.0153 ± 0.0012 | – | – | – |
| COc1ccc2c(c1)CCN(CCCCCc1ccccc1)CC2O (stereo not shown) [formula (5)] | 0.325 | 0.305 | 0.0653 ± 0.0123 | – |
| COc1ccc2c(c1)CCN(CCCC(=O)c1ccc(F)cc1)CC2O (stereo not shown) [formula (6)] | 0.258 | – | – | inhibition of the σ2 receptor only at concentrations above (σ2 receptor; [3]): above 1 µM; inhibition of the σ1 receptor only at concentrations above (σ1 receptor; [4]): above 1 µM |
| COc1ccc2c(c1)CCN(CCCCSc1ccccc1)CC2O (stereo not shown) [formula (7)] | – | 0.308 ± 0.116 | 0.0947 ± 0.051 | Ki ([1]; values given in µM): 1.04 µM |
| COc1ccc2c(c1)CCN(CCCSc1ccccc1)CC2O (stereo not shown) [formula (8)] | – | – | 0.155 | Ki ([1]; values given in µM): 1.88 µM; Ki (σ2 receptor; [7]): 1.52 µM |
| OC1CN(CCCCc2ccccc2)CCc2cc(OCc3ccccc3)ccc21 (stereo not shown) [formula (9)] | 0.249 ± 0.063 | – | 0.293 ± 0.101 | Ki (σ2 receptor; [7]): 1.05 µM |
| O=S(=O)(CCCN1CCc2cc(OCc3ccccc3)ccc2C(O)C1)c1ccccc1 (stereo not shown) [formula (10)] | 0.0452 | – | 0.349 | Ki (σ2 receptor; [7]): 3.04 µM |
| COc1ccc2c(c1)CCN(CCCC1(c3ccc(F)cc3)OCC(C)(C)CO1)CC2O (stereo not shown) [formula (11)] | 0.107 | – | 0.0456 | Ki (σ2 receptor; 3 nM [3H]-[…] with 2 µM (+)-pentazocine, 180 min at room temperature, mean ± SEM): 0.103 µM |
| OC1CN(CCCSc2ccccc2)CCc2cc(OCc3ccccc3)ccc21 (stereo not shown) [formula (12)] | 0.046 | 0.653 | 0.376 | – |
| CC(C)(C)c1ccc(C(=O)CCCN2CCc3cc(OCc4ccccc4)ccc3C(O)C2)cc1 (stereo not shown) [formula (13)] | 0.099 | – | 0.604 | Ki (σ2 receptor; [7]): 6.43 µM |
| COc1ccc2c(c1)CCN(CCCC(=O)c1ccc(C(C)(C)C)cc1)CC2O (stereo not shown) [formula (14)] | 0.0604 | 0.267 ± 0.055 | 0.0443 ± 0.0141 | – |
| CC1(C)COC(CCCN2CCc3cc(OCc4ccccc4)ccc3C(O)C2)(c2ccc(F)cc2)OC1 (stereo not shown) [formula (15)] | – | – | – | Ki ([1]; values given in µM): 1.24 µM; inhibition of the σ2 receptor only at concentrations above (σ2 receptor; [3]): above 1 µM; inhibition of the σ1 receptor only at concentrations above (σ1 receptor; [4]): above 1 µM |
| CN(Cc1ccccc1)C(=O)CN1CCc2cc(O)ccc2C(O)C1 (stereo not shown) [formula (16)] | – | – | 0.172 | Ki ([1]; values given in µM): 7.68 µM; Ki (σ2 receptor; [7]): 1.58 µM |
| COc1ccc2c(c1)CCN(CCCCc1ccccc1)[C@@H](C)[C@H]2O [formula (17)] | 0.209 | 0.00608 ± 0.00148 | 0.0421 ± 0.0099 | – |
| COc1ccc2c(c1)CCN(CCCCc1ccccc1)[C@H](C)[C@@H]2O [formula (18)] | 0.586 | 0.0185 ± 0.0042 | 0.00321 ± 0.00142 | – |
| OC1CN(C2CCC(c3ccccc3)CC2)CCc2cc(OCc3ccccc3)ccc21 (stereo not shown) [formula (20)] | – | 0.311 | 0.0104 ± 0.0014 | Ki ([1]; values given in µM): 2.51 µM |
| Oc1ccc2c(c1)CCN(CCCOc1ccccc1)CC2O (stereo not shown) [formula (22)] | 0.0234 | 0.00589 ± 0.00286 | 0.0822 | – |
| C[C@H]1[C@H](O)c2ccc(O)cc2CCN1CCCCc1ccccc1 [formula (29)] | 0.171 | – | 0.0408 | – |
| C[C@@H]1[C@@H](O)c2ccc(O)cc2CCN1CCCCc1ccccc1 [formula (30)] | 0.0164 | – | 0.846 | – |
